IC50 data for 21 compounds are collected here from patent publication US9328118B2, “Nitrogen-containing bicyclic aromatic heterocyclic compound” (ASTELLAS PHARMA INC., priority 2012, dated 2016).

Chain of human cathepsin S (P25774 115-331): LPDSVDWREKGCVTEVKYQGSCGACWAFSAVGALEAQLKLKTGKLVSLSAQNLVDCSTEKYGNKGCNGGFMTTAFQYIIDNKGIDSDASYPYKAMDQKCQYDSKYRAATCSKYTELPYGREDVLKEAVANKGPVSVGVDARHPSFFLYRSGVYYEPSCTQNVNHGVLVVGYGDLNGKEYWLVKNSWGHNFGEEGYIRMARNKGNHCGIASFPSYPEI

One experiment has as its target human cathepsin S (Homo sapiens (Human), UniProt P25774). Put plainly: In vitro human cathepsin S inhibitory activity (VVR-AMC fluorescence). It is filed as biochemical. The note with it: human cathepsin S enzyme, substrate VVR-AMC 40 μM, pH 4.5, 37° C.; read-out: IC50 value of the human cathepsin S inhibitory activity (Data 1). The procedure: Test Example 1 Measurement of a In Vitro Human Cathepsin S Inhibitory Activity
5 μL of a human cathepsin S enzyme (R&D1183-CY-010) was added to a 96-well plate so as to be 20 ng/well. […] A reaction rate at the time of not adding an enzyme in which the test compound was not added and a reaction rate at the time of adding an enzyme in which the test compound was not added were set to 100% inhibition and 0% inhibition, respectively, then, an inhibition rate at each concentration was determined, and IC50 values were calculated by a linear regression method. In the Table, Ex represents Example compound No., and Data 1 represents an IC50 value (nM) of the human cathepsin S inhibitory activity.
On to `CN1CCC(NC(=O)Cn2ccc3c(-c4ccc(OCCC5CCOCC5)c(C(F)(F)F)c4)nc(C#N)nc32)CC1` [Example 47], for which the IC50 (commonly the concentration that gives 50% inhibition) turned out to be 2.1 nM.

With `CN1CCC[C@@H]1C(=O)N1CCC(CCOc2ccc(-c3nc(C#N)nc4c3ncn4C)cc2C(F)(F)F)CC1` [Example 6, 9-methyl-6-[4-{2-[1-(1-methyl-D-prolyl)piperidin-4-yl]ethoxy}-3-(trifluoromethyl)phenyl]-9H-purine-2-carbonitrile], the half-maximal inhibitory concentration (IC50) is 3.4 nM.

As to `CN(C)C(=O)CN1CCC(CCOc2ccc(-c3nc(C#N)nc4c3ccn4C)cc2C(F)(F)F)CC1` [Example 3, 2-(4-{2-[4-(2-cyano-7-methyl-7H-pyrrolo[2,3-d]pyrimidin-4-yl)-2-(trifluoromethyl)phenoxy]ethyl}piperidin-1-yl)-N,N-dimethylacetamide], the half-inhibitory concentration (IC50) came out at 2.6 nM.

The next experiment deals with MHC class II expression in B220 positive B cells of mouse spleen cells. Put plainly: In vitro MHC class II expression inhibitory effect using mouse spleen cells (LPS-stimulated B cells, flow cytometry). It is filed as cell-based, C57BL/6 mice. The note with it: B-cell, 48 h, read-out: IC50 value of MHC class II expression inhibition (Data 2). Here is the method: Test Example 2 Evaluation of In Vitro MHC Class II Expression Inhibitory Effect Using Mouse Spleen Cells (Cell Evaluation System)
In antigen-presenting cells, the inhibition of cathepsin S inhibits the expression of MHC class II molecules. […] For an increased expression of MI-IC class II in B cells, the inhibitory effect of the compound represented by formula (I) was examined.
First, spleen cells collected from C57BL/6 mice were seeded in a 96-well plate so as to be a 1×10^5 cells/well, then, 5-fold dilution of 10 mM DMSO solution of the test compound was serially performed with RPMI 1640 medium (including 10% fetal bovine serum (FCS), 5×10^−5 M 2-mercaptoethanol, 50 IU/mL penicillin and 50 μg/mL streptomycin) nine times such that the final concentration becomes 0.026 nM to 10 μM, and the resultant products were added thereto (the final DMSO concentration was 0.1%). At the same time, LPS (Sigma L4005) was added to the wells such that the final concentration becomes 2 μg/mL, and culture was performed at 37° C. for 48 hours in 5% CO2. After culturing, the cells were stained at 4° C. for 20 minutes with PE-labeled streptavidin (BD BIOSCIENCE 554061) and biotin-labeled YAe antibody (EBIOSCIENCE 13-5741-85) together with FITC-labeled anti-mouse B220 antibody (BD BIOSCIENCE 553088), and an expression level (fluorescence intensity of YAe-biotin/streptavidin-PE) of MHC class II to which Ea peptide in B220 positive B cells was bonded was measured using a flow cytometry system (Guava EasyCyte Plus System, manufactured by Millipore Corporation). A value at the time of unstimulation of LPS in which the test compound was not added and a value at the time of stimulation of LPS in which the test compound was not added were set to 100% inhibition and 0% inhibition, respectively, then, an inhibition rate at each concentration was determined, and IC50 values were calculated by a linear regression method. In the Table, Ex represents Example compound No., and Data 2 represents an IC50 value (nM).
Take `CN1CCC(NC(=O)Cn2ccc3c(-c4ccc(OCCC5CCOCC5)c(C(F)(F)F)c4)nc(C#N)nc32)CC1` [Example 47]: the IC50 is 2 nM.

The same experiment, now with this note: B-cell, C57BL/6 spleen cells, LPS 2 μg/mL, 48 hours, B220 positive B cells, read-out: IC50 value of MHC class II expression inhibition (Data 2).
As to `CN1CCC[C@@H]1C(=O)N1CCC(CCOc2ccc(-c3nc(C#N)nc4c3ncn4C)cc2C(F)(F)F)CC1` [Example 6, 9-methyl-6-[4-{2-[1-(1-methyl-D-prolyl)piperidin-4-yl]ethoxy}-3-(trifluoromethyl)phenyl]-9H-purine-2-carbonitrile], the IC50 is 0.69 nM.

Take `CN(C)C(=O)CN1CCC(CCOc2ccc(-c3nc(C#N)nc4c3ccn4C)cc2C(F)(F)F)CC1` [Example 3, 2-(4-{2-[4-(2-cyano-7-methyl-7H-pyrrolo[2,3-d]pyrimidin-4-yl)-2-(trifluoromethyl)phenoxy]ethyl}piperidin-1-yl)-N,N-dimethylacetamide]: the IC50 was found to be 1 nM.

As to `Cn1cnc2c(-c3ccc(OCCC4CCN(CC(=O)N5CCC(C#N)CC5)CC4)c(C(F)(F)F)c3)nc(C#N)nc21` [Example 120], the 50% inhibitory concentration (IC50) was 1 nM.

For `Cn1ccc2c(-c3cnc(OCC4CCN(C(=O)C5CCN(CC(C)(C)O)CC5)CC4)c(C(F)(F)F)c3)nc(C#N)nc21` [Example 135, 4-{6-[(1-{[1-(2-hydroxy-2-methylpropyl)piperidin-4-yl]carbonyl}piperidin-4-yl)methoxy]-5-(trifluoromethyl)pyridin-3-yl}-7-methyl-7H-pyrrolo[2,3-d]pyrimidine-2-carbonitrile], the concentration for half-maximal inhibition (IC50) was 0.89 nM.

`CCN1CCC(CCOc2ncc(-c3nc(C#N)nc4c3ncn4CC3CCOC3)cc2C(F)(F)F)CC1` (stereo not drawn) [Example 71]: the 50% inhibitory concentration (IC50) was found to be 1.3 nM.

In the case of `CCN1CCC(CCOc2ncc(-c3nc(C#N)nc4c3ccn4C)cc2C(F)(F)F)CC1` [Example 27], the IC50 was 1.3 nM.

Regarding `Cn1cnc2c(-c3ccc(OCCC4CCN(CCO)CC4)c(C(F)(F)F)c3)nc(C#N)nc21` [Example 24], the IC50 worked out at 0.8 nM.

Turning to `CN1CCC[C@H]1C(=O)N1CCC(CCOc2ncc(-c3nc(C#N)nc4c3ccn4C)cc2C(F)(F)F)CC1` [Example 41], the IC50 amounted to 1.1 nM.

Turning to `CN1CCC[C@H]1C(=O)N1CCC(CCOc2ccc(-c3nc(C#N)nc4c3ncn4C)cc2C(F)(F)F)CC1` [Example 29], the IC50 stood at 0.66 nM.

On to `CCN1CCC(CCOc2ccc(-c3nc(C#N)nc4c3ccn4CC3CCOC3)cc2C(F)(F)F)CC1` (stereo not drawn) [Example 54], for which the IC50 is 0.94 nM.

As to `CCN1CCC(COc2ccc(-c3nc(C#N)nc4c3ccn4CC3CCOC3)cc2C(F)(F)F)CC1` (stereo not drawn) [Example 106], the IC50 was 3.2 nM.

With `Cn1cnc2c(-c3cnc(OCCC4CCN(C5CCC5)CC4)c(C(F)(F)F)c3)nc(C#N)nc21` [Example 141], the 50% inhibitory concentration (IC50) is 0.65 nM.

Turning to `CCN1CCC(CCOc2ccc(-c3nc(C#N)nc4c3ncn4CC3CCOC3)cc2C(F)(F)F)CC1` (stereo not drawn) [Example 70], the IC50 is 0.76 nM.

As for `CN(C)C(=O)CN1CCC(CCOc2ccc(-c3nc(C#N)nc4c3ncn4C)cc2C(F)(F)F)CC1` [Example 72], the IC50 came out at 0.73 nM.

`Cn1cnc2c(-c3ccc(OCCC4CCN(CC(=O)N5CC[C@H](F)C5)CC4)c(C(F)(F)F)c3)nc(C#N)nc21` [Example 122]: the IC50 worked out at 0.87 nM.

`N#Cc1nc(-c2ccc(OCCC3CCNCC3)c(C(F)(F)F)c2)c2ccn(CC3CCOC3)c2n1` (stereo not drawn) [Example 23]: the IC50 is 3 nM.

For `CN1CCC[C@H]1C(=O)N1CCC(CCOc2ncc(-c3nc(C#N)nc4c3ncn4CC3CCOC3)cc2C(F)(F)F)CC1` (stereo partly drawn) [Example 79], the IC50 was 2.5 nM.

Turning to `CCN1CCC(CCOc2ccc(-c3nc(C#N)nc4c3ccn4CC3CCCO3)cc2C(F)(F)F)CC1` (stereo not drawn) [Example 88], the half-inhibitory concentration (IC50) worked out at 2.3 nM.

In the case of `CN1CCC[C@H]1C(=O)N1CCC(CCOc2ccc(-c3nc(C#N)nc4c3ccn4CC3CCOC3)cc2C(F)(F)F)CC1` (stereo partly drawn) [Example 30], the IC50 is 0.97 nM.

In the case of `CN1CCC[C@H]1C(=O)N1CCC(CCOc2ncc(-c3nc(C#N)nc4c3ncn4C)cc2C(F)(F)F)CC1` [Example 40], the IC50 turned out to be 0.85 nM.
